Laboratory results: patent EP0223671A1, “Medicament with a synergistic anti-inflammatory effect on the basis of a corticosteroid and a beta-agonist” (CENTRE INTERNATIONAL DE RECHERCHES DERMATOLOGIQUES GALDERMA …, priority 1985, dated 1987)
Structures can show the parent of a compound that is named as a salt. Marks after values point to notes of the source that are not given here.

Experiments:
[1] = tested on: oedème de l'oreille induit par l'huile de croton; test: Croton oil-induced ear oedema test in the rat; format: in vivo; conditions: inhibition of oedema vs control animals, topical on right ear 1 h before croton oil, read 6 h after, hydro-ethanolic gel vehicle
Protocol: On applique de façon normalisée sur les faces interne et externe de l'oreille droite de rats une solution d'huile de croton ayant la composition suivante: • - pyridine : 4ml • - oxyde de diéthyle: 13ml • - huile de croton^*: 2ml • - eau qsp 20ml ^* SIGMA réf. C4755
Les animaux traités reçoivent, une heure avant l'application de l'huile de croton, une application sur l'oreille droite par voie topique, du produit étudié dans le véhicule suivant (placebo):gel hydroéthanolique à 2X d'hydroxypropyl cellulose (KLUCEL HF); (proportion eau-éthanol : 80/20).
Les animaux témoins ne reçoivent que l'application d'huile de croton.
Six heures après l'application d'huile de croton, on évalue l'importance de l'oedème par comparaison de l'oreille droite et de l'oreille gauche. On calcule ensuite l'inhibition de l'oedème, en pourcentage, par rapport aux animaux témoins.

érythème induit par UVB = test: UVB-induced erythema test in the guinea pig; format: in vivo, cobaye; conditions: dose 5 % p/v, 100 microlitres per site, topical 1 h after irradiation; vs animals given vehicle alone
Protocol: Les flancs des cobayes sont rasés à la tondeuse 24 heures avant l'expérience. On soumet les animaux à une irradiation à l'aide d'une lampe à vapeur de mercure. On irradie pendant 30 secondes deux sites de diamètre 1,5cm sur chaque flanc. Une heure après l'irradiation, on applique par voie topique le produit étudié sur chaque site irradié d'un seul flanc. Les observations de l'érythème sont faites 2h, 3,5h, 5h et 24h après l'application du produit. L'érythème est évalué selon une échelle de 0 à 5.
Les produits sont appliqués dans le véhicule suivant: • N,N-diméthylacétamide: 20ml • acétone : 40ml • éthanol : 40ml
On applique un volume de 100 microlitres par site.
On évalue l'importance de l'érythème en comparant les flancs droit et gauche. On calcule ensuite l'inhibition de l'érythème, en pourcentage, par rapport aux animaux témoins ayant reçu une application du véhicule seul.

Structure (SMILES)	POURCENTAGE D'INHIBITION ([1]; dose 0.1 % p/v) [%]	POURCENTAGE D'INHIBITION DE L'ERYTHEME 5 HEURES APRES APPLICATION (érythème induit par UVB)	POURCENTAGE D'INHIBITION ([1]; dose 0.5 % p/v) [%]	other results
CCCC(=O)O[C@]1(C(=O)CO)CC[C@H]2[C@@H]3CCC4=CC(=O)CC[C@]4(C)[C@H]3[C@@H](O)C[C@@]21C [HYDROCORTISONE 17 BUTYRATE, Hydrocortisone-17 butyrate]	30	–	–	–
C[C@]12CCC(=O)C=C1CC[C@@H]1[C@@H]2[C@@H](O)C[C@@]2(C)[C@H]1CC[C@]2(O)C(=O)CO [HYDROCORTISONE, Hydrocortisone]	14	3 NS %	–	–
CC(C)NCC(O)COc1cccc2ccccc12 (stereo not shown) [PROPRANOLOL]	–	–	–	P[…]'INHIBITION ([1]; dose 0.5 % p/v): 5%
CC(C)(C)NCC(O)c1ccc(O)c(CO)c1 (stereo not shown) [SALBUTAMOL SULFATE, 2-(tert-butylamino)-1-(4-hydroxy-3-hydroxyphényl)éthanol]	–	–	14	–
CC(C)(C)NCC(O)c1ccc(O)c(CO)c1 (stereo not shown) [SALBUTAMOL, 2-(tert-butylamino)-1-(4-hydroxy-3-hydroxyphényl)éthanol]	–	14 * %	–	–
CC(C)(C)NCC(O)c1cc(O)cc(O)c1 (stereo not shown) [TERBUTALINE SULFATE, 1-(3,5-dihydroxyphényl)-2-(tert-butylamino)éthanol]	–	–	12	–
